Earlier results, collected in patent US20130224131A1, “4-AMIDINO BENZYLAMINES FOR COSMETIC AND/OR DERMATOLOGICAL USE” (DSM IP ASSETS B.V., priority 2007, published 2013).

Biological target: urokinase (Homo sapiens, UniProt P00749)
Details: qualitative statement, described in WO 01/96286

Compound | urokinase-inhibiting activity
N=C(N)c1ccc(CNC(=O)CNC(=O)[C@@H](CO)NS(=O)(=O)Cc2ccccc2)cc1 [benzylsulfonyl-D-Ser-Gly-4-amidino-benzylamide] | potent and highly specific urokinase-inhibiting activity
N=C(N)c1ccc(CNC(=O)C(CCc2ccccc2)NC(=O)[C@@H](CO)NS(=O)(=O)Cc2ccccc2)cc1 (stereo partly drawn) [benzylsulfonyl-D-Ser-homoPhe-(4-amidino-benzylamide)] | potent and highly specific urokinase-inhibiting activity
N=C(N)c1ccc(CNC(=O)[C@H](CCCCN)NC(=O)[C@@H](CO)NS(=O)(=O)Cc2ccccc2)cc1 [benzylsulfonyl-D-Ser-Lys-(4-amidino-benzylamide)] | potent and highly specific urokinase-inhibiting activity
